Experimental data: patent publication US10376520B2, “Methods for the treatment of cardiovascular disorders” (Galapagos NV, priority 2015, dated 2019)

Test system: Subjects With Active Crohn's Disease
Assay: [HDL] determination, Study 5 (Crohn's disease)
Type: in vivo, human
Description: Double-Blind, Randomized, Placebo-Controlled, Multi-Centre Study to Investigate the Efficacy and Safety of Compound 1 in Subjects With Active Crohn's Disease With Evidence of Mucosal Ulceration.
This is a double-blind, randomized, placebo-controlled, multi-centre Phase 2 study to investigate the efficacy and safety of Compound 1 administered once daily for the treatment of active CD with evidence of mucosal ulceration. The pharmacokinetics (including a PK substudy) and pharmacodynamics of Compound 1 and metabolite in CD will also be characterised.
A total of 180 eligible subjects will be randomized to receive Compound 1 or placebo in addition to their stable background treatment (eg, corticosteroids, aminosalicylates, or CD-related antibiotics). The study will consist of 2 parts, with total treatment duration of 20 weeks. Randomization in Part 1 will be stratified according the subject's previous anti-TNF exposure/response, CRP level at Screening, and oral corticosteroid use at visit Day −1.
After the first 10 weeks of treatment in Part 1, patients will be re-randomized for Part 2 as shown in the diagram below and will be stratified according to the subject's clinical response, previous anti-TNF exposure/response, and oral corticosteroid use at visit Day −1.
The following assays were conducted at Eurofins Global Central Laboratory, Bergschot 71, 4817 PA Breda, The Netherlands, and at Quest Diagnostics, Clinical Trials, Quest House, 125-135 Staines Road, Hounslow, Middlesex, TW3 3JB, United Kingdom. The assays for Study 5 were performed at BARC Europe, 3B, Industrie Park, Zwijnaarde, B-9052 Ghent, Belgium.
This assay relies on a homogeneous enzymatic colorimetric test. In the presence of magnesium ions, dextran sulfate selectively forms water-soluble complexes with LDL, VLDL and chylomicrons which are resistant to PEG-modified enzymes.
The cholesterol concentration of [HDL]-cholesterol is determined enzymatically by cholesterol esterase and cholesterol oxidase coupled with PEG to the amino groups (approx. 40%).
In the presence of peroxidase, the hydrogen peroxide generated reacts with 4-amino-antipyrine and Sodium N-(2-hydroxy-3-sulfopropyl)-3,5-dimethoxyaniline (HSDA) to form a purple-blue dye. The color intensity of this dye is directly proportional to the cholesterol concentration and is measured photometrically.
Human serum and plasma samples [HDL] determination was done on a Roche/Hitachi Cobas c 701/702 system which automatically calculate the analyte concentration of each sample. Samples containing precipitates are centrifuged before performing the assay.

[1] = 200 mg q.d. continued to week 20; week 2
[2] = 200 mg q.d. continued to week 20; week 4
[3] = 200 mg q.d. continued to week 20; week 6
[4] = 200 mg q.d. continued to week 20; week 10
[5] = 200 mg q.d. continued to week 20; week 12
[6] = 200 mg q.d. continued to week 20; week 16
[7] = 200 mg q.d. continued to week 20; week 20
[8] = 200 mg q.d. week 0 to 10, then 100 mg q.d. (N = 30), week 2
[9] = 200 mg q.d. week 0 to 10, then 100 mg q.d. (N = 30), week 4
[10] = 200 mg q.d. week 0 to 10, then 100 mg q.d. (N = 30), week 6
[11] = 200 mg q.d. week 0 to 10, then 100 mg q.d. (N = 30), week 10
[12] = 200 mg q.d. week 0 to 10, then 100 mg q.d. (N = 30), week 12
[13] = 200 mg q.d. week 0 to 10, then 100 mg q.d. (N = 30), week 16
[14] = 200 mg q.d. week 0 to 10, then 100 mg q.d. (N = 30), week 20
[15] = 200 mg q.d. week 0 to 10, then placebo (N = 23), week 2
[16] = 200 mg q.d. week 0 to 10, then placebo (N = 23), week 4
[17] = 200 mg q.d. week 0 to 10, then placebo (N = 23), week 6
[18] = 200 mg q.d. week 0 to 10, then placebo (N = 23), week 10
[19] = 200 mg q.d. week 0 to 10, then placebo (N = 23), week 12
[20] = 200 mg q.d. week 0 to 10, then placebo (N = 23), week 16
[21] = 200 mg q.d. week 0 to 10, then placebo (N = 23), week 20
[22] = 200 mg q.d. week 0 to 10, to 100 mg q.d. week 10 to 20; week 2

Compound: O=C(Nc1nc2cccc(-c3ccc(CN4CCS(=O)(=O)CC4)cc3)n2n1)C1CC1 [Compound 1, cyclopropanecarboxylic acid {5-[4-(1,1-dioxo-thiomorpholin-4-ylmethyl)-phenyl]-[1,2,4]triazolo[1,5-a]pyridin-2yl}-amide]
- [HDL] Mean CFB - 10 weeks results (200 mg q.d. (N = 130), week 2): 0.222 mmol/L
- [HDL] Median CFB - 10 weeks results (200 mg q.d. (N = 130), week 2): 0.210 mmol/L
- [HDL] Mean CFB - 10 weeks results (200 mg q.d. (N = 130), week 4): 0.237 mmol/L
- [HDL] Median CFB - 10 weeks results (200 mg q.d. (N = 130), week 4): 0.210 mmol/L
- [HDL] Mean CFB - 10 weeks results (200 mg q.d. (N = 130), week 6): 0.243 mmol/L
- [HDL] Median CFB - 10 weeks results (200 mg q.d. (N = 130), week 6): 0.250 mmol/L
- [HDL] Mean CFB - 10 weeks results (200 mg q.d. (N = 130), week 10): 0.239 mmol/L
- [HDL] Median CFB - 10 weeks results (200 mg q.d. (N = 130), week 10): 0.260 mmol/L
- [HDL] Median CFB - 10 weeks results (200 mg q.d. (N = 130); week 2): 16.867%
- [HDL] Median CFB - 10 weeks results (200 mg q.d. (N = 130); week 4): 15.333%
- [HDL] Median CFB - 10 weeks results (200 mg q.d. (N = 130); week 6): 16.867%
- [HDL] Median CFB - 10 weeks results (200 mg q.d. (N = 130); week 10): 15.789%
- [HDL] Mean CFB - 20 weeks results [1]: 18.29%
- [HDL] Median CFB - 10 weeks results [1]: 17.33%
- [HDL] Mean CFB - 20 weeks results [2]: 15.66%
- [HDL] Median CFB - 10 weeks results [2]: 9.91%
- [HDL] Mean CFB - 20 weeks results [3]: 19.93%
- [HDL] Median CFB - 10 weeks results [3]: 13.98%
- [HDL] Mean CFB - 20 weeks results [4]: 17.97%
- [HDL] Median CFB - 10 weeks results [4]: 12.50%
- [HDL] Mean CFB - 20 weeks results [5]: 16.97%
- [HDL] Median CFB - 10 weeks results [5]: 9.94%
- [HDL] Mean CFB - 20 weeks results [6]: 13.90%
- [HDL] Median CFB - 10 weeks results [6]: 12.22%
- [HDL] Mean CFB - 20 weeks results [7]: 11.15%
- [HDL] Median CFB - 10 weeks results [7]: 10.66%
- [HDL] Mean CFB - 20 weeks results [8]: 0.24 mmol/L
- [HDL] Median CFB - 20 weeks results [8]: 0.22 mmol/L
- [HDL] Mean CFB - 20 weeks results [9]: 0.31 mmol/L
- [HDL] Median CFB - 20 weeks results [9]: 0.22 mmol/L
- [HDL] Mean CFB - 20 weeks results [10]: 0.33 mmol/L
- [HDL] Median CFB - 20 weeks results [10]: 0.31 mmol/L
- [HDL] Mean CFB - 20 weeks results [11]: 0.33 mmol/L
- [HDL] Median CFB - 20 weeks results [11]: 0.26 mmol/L
- [HDL] Mean CFB - 20 weeks results [12]: 0.17 mmol/L
- [HDL] Median CFB - 20 weeks results [12]: 0.15 mmol/L
- [HDL] Mean CFB - 20 weeks results [13]: 0.11 mmol/L
- [HDL] Median CFB - 20 weeks results [13]: 0.03 mmol/L
- [HDL] Mean CFB - 20 weeks results [14]: 0.18 mmol/L
- [HDL] Median CFB - 20 weeks results [14]: 0.16 mmol/L
- [HDL] Mean CFB - 20 weeks results [15]: 0.18 mmol/L
- [HDL] Median CFB - 20 weeks results [15]: 0.18 mmol/L
- [HDL] Mean CFB - 20 weeks results [16]: 0.30 mmol/L
- [HDL] Median CFB - 20 weeks results [16]: 0.39 mmol/L
- [HDL] Mean CFB - 20 weeks results [17]: 0.15 mmol/L
- [HDL] Median CFB - 20 weeks results [17]: 0.16 mmol/L
- [HDL] Mean CFB - 20 weeks results [18]: 0.16 mmol/L
- [HDL] Median CFB - 20 weeks results [18]: 0.24 mmol/L
- [HDL] Mean CFB - 20 weeks results [19]: -0.12 mmol/L
- [HDL] Median CFB - 20 weeks results [19]: -0.03 mmol/L
- [HDL] Mean CFB - 20 weeks results [20]: -0.18 mmol/L
- [HDL] Median CFB - 20 weeks results [20]: -0.05 mmol/L
- [HDL] Mean CFB - 20 weeks results [21]: -0.21 mmol/L
- [HDL] Median CFB - 20 weeks results [21]: -0.08 mmol/L
- [HDL] Mean CFB - 20 weeks results [22]: 20.28%
- [HDL] Median CFB - 10 weeks results [22]: 17.11%
